The values that follow come from BindingDB's records for doi:10.1021/acsmedchemlett.8b00220 (Merck, 2018).

Data set [1] is described as follows: Inhibition of CYP3A4 (unknown origin) co-incubated with substrate.
Data set [2] can be described thus: Inhibition of CYP3A4 (unknown origin) preincubated followed by substrate addition.

The structures appear in SMILES notation. A value given as a limit tells only on which side of the number the result lay.

As for `CS[C@@]1(C(=O)Nc2ccc3[nH]nc(-c4ccc(F)cc4)c3c2)CCN(CC(=O)N2CC=C(c3ccc(-c4ncccn4)cc3)CC2)C1` [US8546404, 613], the results for the IC50 in data set [1] and in data set [2] were greater than 30000 nM and 2000 nM, respectively.

Usually IC50 stands for the point on the concentration scale where inhibition reaches its midpoint.
